Measured values reported in patent US20240182470A1, “KRASG12C MUTANT PROTEIN INHIBITOR, PREARATION AND USE THEREOF” (YA THERAPEUTICS INC, priority 2021, published 2024).

System: H358 (KRAS G12C mutant) cells
Assay: Tumor cell proliferation inhibition assay (Cell Titer-Glo, 72 h)
Type: cell-based
Details: inhibition of tumor cell proliferation, 72 hours with compound, 10% fetal bovine serum; read-out: NCI-H538 IC50(nm)
Procedure: The H358 (KRAS G^12C mutant) cells were digested, centrifuged and resuspended, and the cell density was measured with a Scepter automatic cell counter. The cells were diluted to a solution containing 44,000 cells per milliliter, and the density-adjusted cell solution was 90 microliters per well. into a 96-well culture plate. The 96-well plate was placed in a 37° C., 5% CO2 incubator. After the cells were cultured for 24 hours, different concentrations of the compounds to be tested were added. The cells were incubated with the compounds for 72 hours in the presence of 10% fetal bovine serum. Glo Luminescent Cell Viability Assay Kit (see manufacturer's instructions for details) was used to measure ATP content to assess cell growth inhibition. Briefly, 30 μl of Cell Titer-Glo reagent was added to each well, and the plate was shaken for 10 minutes to induce cell lysis. Fluoroskan
Ascent FL (Thermo) assay was used to record the fluorescent signal, and the maximum signal value was obtained from cells treated with dimethyl sulfoxide for 72 hours. The minimum signal value was obtained from the medium alone (the number of cells was zero), and the % inhibition rate=(the maximum signal value compound signal value)/(the maximum signal value—the minimum signal value×100%, and the data were processed using Graphpadprism 5 software. By sigmoid Dose-response curve fitting to calculate the IC50 value. “A” means IC50≤50 nM; “B” means 50<IC50≤500 nM; “C” means 500<IC50≤2000 nM; “D” means 2000 nM<IC50

Row | Compound | IC50 [nM]
1 | 7-(8-Methylnaphthyl)-6-fluoro-4-(((R)-4-acryloyl-2-methylpiperazine)-1-yl)-1-y1)-2-(((S)-2,2-difluorotetrahydro-1H-pyrincyclo-7a(5H)-yl)methoxy)pyridine[2,3-d]lopyrimidine [Compound 80] | ≤ 50
2 | 7-(8-Methylnaphthyl)-6-fluoro-4-(((R)-4-acryloyl-2-methylpiperazine)-1-yl)-2-(((2R,7aS)-2-fluorotetrahydro-1H-pyrincyclo-7a(5H)-yl)methoxy)pyridine[2,3-d]lopyrimidine [Compound 81] | ≤ 50
3 | 7-(8-Methylnaphthyl)-6-fluoro-4-(((S)-4-(2-fluoro acryloyl)-3-carbonitrileethylpiperazine)-1-yl)-2-(((S)-2,2-difluorotetrahydro-1H-pyrincycl-7a(5H)-yl)methoxy)pyridine[2,3-d]lopyrimidine [Compound 85] | ≤ 50
4 | 7-(8-Methylnaphthyl)-6-fluoro-4-(((S)-4-(2-fluoroacryloyl)-3-carbonitrileethylpiperazine)-1-yl)-2-(((2R,7aS)-2-fluorotetrahydro-1H-pyrinyl-7a(5H)-yl)methoxy)pyridine[2,3-d]lopyrimidine [Compound 82] | ≤ 50
5 | 7-(8-Methylnaphthyl)-8-fluoro-4-(((R)-4-acryloyl-2-methylpiperazine)-1-yl)-2-(((2R,7aS)tetrakishydrogen-1H-pyrinyl-7a(5H)-yl)methoxy)quinazoline [Compound 61] | ≤ 50
6 | 7-(8-Methylnaphthyl)-8-fluoro-4-(((R)-4-acryloyl-2-methylpiperazine)-1-yl)-2-(((S)-2,2-difluorotetrahydro-1H-pyrinyl-7a(5H)-yl)methoxy)quinazoline [Compound 62] | ≤ 50
7 | 7-(8-Methylnaphthyl)-8-fluoro-4-(((S)-4-(2-fluoroacryloyl)-3-carbonitrileethylpiperazine)-1-yl)-2-(((S)-2,2-difluorotetrahydro-1H-pyrincyclo-7a(5H)-yl)methoxy)quinazoline [Compound 72] | ≤ 50
8 | 7-(8-fluoronaphthyl)-8-fluoro-4-(((R)-4-acryloyl-2-methylpiperazine)-1-yl)-2-(((S)-2,2-difluorotetrahydro-1H-pyrincyclo-7a(5H)-yl)methoxy)quinazoline [Compound 59] | ≤ 50
9 | 7-(8-fluoronaphthyl)-8-fluoro-4-(((S)-4-(2-fluoroacryloyl)-3-carbonitrileethylpiperazine)-1-yl)-2-(((2R,7aS)-2-fluorotetrahydro-1H-pyrinyl-7a(5H)-yl)methoxy)quinazoline [Compound 51] | ≤ 50
10 | C=C(F)C(=O)N1CCN(c2cc(OC[C@@H]3CCCN3C)nc3nc(-c4cccc5cccc(F)c45)c(F)cc23)C[C@@H]1CC#N [Compound 6] | ≤ 50
11 | C=C(F)C(=O)N1CCN(c2cc(OC[C@@H]3CCCN3C)nc3nc(-c4cccc5cccc(F)c45)c(F)cc23)[C@H](C)C1 [Compound 8] | ≤ 50
12 | C=CC(=O)N1CCN(c2nc(OC[C@@H]3CCCN3C)nc3nc(-c4cccc5cccc(F)c45)c(F)cc23)[C@@H](C)C1 [Compound 10] | ≤ 50
13 | C=CC(=O)N1CCN(c2nc(OC[C@@H]3CCCN3C)nc3nc(-c4c(O)cccc4F)c(F)cc23)[C@@H](C)C1 [Compound 12, 7-(2-Fluoro-6-hydroxyphenyl)-6-fluoro-4-(((S)-4-(2-acryloyl)-2-methylpiperazine)-1-yl)-2-(((S)-1-(methyl-d3)pyrrolidin-2-yl)methoxy)pyridine[2,3-d]lopyrimidine] | 500 to 2000
14 | C=CC(=O)N1CCN(c2nc(OC[C@@]34CCCN3C[C@H](F)C4)nc3nc(-c4cccc5cccc(F)c45)c(F)cc23)C[C@H]1CC#N [Compound 25, 7-(8-Fluoronaphthyl)-6-fluoro-4-(((R)-4-acryloyl-3-carbonitrileethylpiperazine)-1-yl)-2-(((2R,7aS)-2-fluorotetrahydro-1H-pyrincycl-7a(5H)-yl)methoxy)pyridine[2,3-d]lopyrimidine] | ≤ 50
15 | C=CC(=O)N1CCN(c2nc(OC[C@@]34CCCN3C[C@H](F)C4)nc3nc(-c4cccc5cccc(F)c45)c(F)cc23)[C@H](C)C1 [Compound 26, 7-(8-Fluoronaphthyl)-6-fluoro-4-(((R)-4-acryloyl-2-methylpiperazine)-1-yl)-2-(((2R,7aS)-2-Fluorotetrahydro-1H-pyrincycl-7a(5H)-yl)methoxy)pyridine[2,3-d]lopyrimidine] | ≤ 50
16 | C=CC(=O)N1C2CCC1CN(c1nc(OC[C@@]34CCCN3C[C@H](F)C4)nc3nc(-c4cccc5cccc(F)c45)c(F)cc13)C2 [Compound 27] | ≤ 50
17 | C=C(F)C(=O)N1CCN(c2nc(OC[C@@]34CCCN3C[C@H](F)C4)nc3nc(-c4cccc5cccc(F)c45)c(F)cc23)C[C@@H]1CC#N [Compound 29] | ≤ 50
18 | C=C(F)C(=O)N1CCN(c2nc(OC[C@@]34CCCN3C[C@H](F)C4)nc3nc(-c4cccc5cccc(F)c45)c(F)cc23)[C@H](C)C1 [Compound 30] | ≤ 50
19 | C=C(F)C(=O)N1C2CCC1CN(c1nc(OC[C@@]34CCCN3C[C@H](F)C4)nc3nc(-c4cc(O)cc5cccc(F)c45)c(F)cc13)C2 [Compound 32, 7-(3-Hydroxy-8-fluoronaphthyl)-6-fluoro-4-(8-(2-fluoroacryloyl)-3,8-diazabicyclo[3.2.1]octan-3-yl)-2-(((2R,7aS)-2-fluorotetrahydro-1H-pyrincycl-7a(5H)-yl)methoxy)pyridine[2,3-d]lopyrimidine] | ≤ 50
20 | C=C(F)C(=O)N1CCN(c2nc(OC[C@@]34CCCN3C[C@H](F)C4)nc3nc(-c4cc(O)cc5cccc(F)c45)c(F)cc23)C[C@@H]1CC#N [Compound 33, 7-(3-Hydroxy-8-fluoronaphthyl)-6-fluoro-4-(((S)-4-(2-fluoroacryloyl)-3-carbonitrileethylpiperazine)-1-yl)-2-(((2R,7aS)-2-fluorotetrahydro-1H-pyrincycl-7a(5H)-yl)methoxy)pyridine[2,3-d]lopyrimidine] | ≤ 50
21 | C=C(F)C(=O)N1CCN(c2nc(OC[C@@]34CCCN3C[C@H](F)C4)nc3nc(-c4cc(O)cc5cccc(F)c45)c(F)cc23)[C@H](C)C1 [Compound 34, 7-(3-Hydroxy-8-fluoronaphthyl)-6-fluoro-4-(((R)-4-(2-fluoroacryloyl)-2-methylpiperazine)-1-yl)-2-(((2R,7aS)-2-fluorotetrahydro-1H-pyrincyclin-7a(5H)-yl)methoxy)pyridine[2,3-d]lopyrimidine] | ≤ 50
22 | C=CC(=O)N1CCN(c2nc(OC[C@@]34CCCN3C[C@H](F)C4)nc3nc(-c4cc(O)cc5cccc(F)c45)c(F)cc23)C[C@@H]1CC#N [Compound 35, 7-(3-Hydroxy-8-fluoronaphthyl)-6-fluoro-4-(((S)-4-acryloyl-3-carbonitrileethylpiperazine)-1-yl)-2-(((2R,7aS)-2-fluorotetrahydro-1H-pyrinyl-7a(5H)-yl)methoxy)pyridine[2,3-d]lopyrimidine] | ≤ 50
23 | C=CC(=O)N1CCN(c2nc(OC[C@@]34CCCN3C[C@H](F)C4)nc3nc(-c4cc(O)cc5cccc(F)c45)c(F)cc23)[C@H](C)C1 [Compound 36, 7-(3-Hydroxy-8-fluoronaphthyl)-6-fluoro-4-(((R)-4-acryloyl-2-methylpiperazine)-1-yl)-2-(((2R,7aS)-2-fluorotetrahydro-1H-pyrincyclo-7a(5H)-yl)methoxy)pyridine[2,3-d]lopyrimidine] | ≤ 50
24 | C=C(F)C(=O)N1CCN(c2nc(OC[C@@]34CCCN3C[C@H](F)C4)nc3c(F)c(-c4cccc5cccc(F)c45)c(Cl)cc23)[C@H](C)C1 [Compound 38, 6-Chloro-7-(8-fluoronaphthyl)-8-fluoro-4-(((R)-4-(2-fluoroacryloyl)-2-methylpiperazine)-1-yl)-2-(((2R,7aS)-2-fluorotetrahydro-1H-pyrinyl-7a(5H)-yl)methoxy)quinazoline] | ≤ 50
25 | C=C(F)C(=O)N1C2CCC1CN(c1nc(OC[C@@]34CCCN3C[C@H](F)C4)nc3c(F)c(-c4cccc5cccc(F)c45)c(Cl)cc13)C2 [Compound 39, 6-Chloro-7-(8-fluoronaphthyl)-8-fluoro-4-(8-(2-fluoroacryloyl)-3,8-diazabicyclo[3.2.1]octan-3-yl)-2-(((2R,7aS)-2-fluorotetrahydro-1H-pyrincycline-7a(5H)-yl)methoxy)quinazoline] | ≤ 50
26 | C=CC(=O)N1CCN(c2nc(OC[C@@]34CCCN3C[C@H](F)C4)nc3c(F)c(-c4cccc5cccc(F)c45)c(Cl)cc23)C[C@@H]1CC#N [Compound 40, 6-Chloro-7-(8-fluoronaphthyl)-8-fluoro-4-(((S)-4-acryloyl-3-carbonitrileethylpiperazine)-1-yl)-2-(((2R,7aS)-2-fluorotetrahydro-1H-pyrinyl-7a(5H)-yl)methoxy)quinazoline] | ≤ 50
27 | C=C(F)C(=O)N1CCN(c2nc(OC[C@@]34CCCN3C[C@H](F)C4)nc3c(F)c(-c4cccc5cccc(F)c45)c(Cl)cc23)C[C@@H]1CC#N [Compound 41, 6-Chloro-7-(8-fluoronaphthyl)-8-fluoro-4-(((S)-4-(2-fluoroacryloyl)-3-carbonitrileethylpiperazine)-1-yl)-2-(((2R,7aS)-2-fluorotetrahydro-1H-pyrincycline-7a(5H)-yl)methoxy)quinazoline] | ≤ 50
